In this assay the target is MCH receptor (Homo sapiens, UniProt Q99705). The experiment in a line: High throughput functional screening FLIPR/FDSS6000: inhibition of MCH-evoked intracellular Ca2+ changes. Format: cell-based. Conditions: class by percent of control at 10^-7 M or IC50. The procedure, abridged:
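Fluo4 fluorescence (Ex 488 nm, Em 530 nm) tracked MCH-evoked [Ca2+]i transients over 290 s by FLIPR or FDSS. Cells carried a constitutively active, non-endogenous receptor version. Compounds were added 3 min before a 50 nM MCH challenge.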

From patent publication US20070010671A1, “Novel quinazoline derivatives and methods of treatment related to the use thereof” (priority 2003, published 2007) come the findings set out here.

Turning to `Cc1cccc(NC(=S)N[C@H]2CC[C@@H](Nc3nc(N(C)C)c4ccccc4n3)CC2)c1C` [compound 359, N-(cis-4-{[4-(dimethylamino)quinazolin-2-yl]amino}cyclohexyl)-N′-(2,3-dimethylphenyl)thiourea], the class is given as 1 (Class 1: The value of percent of control at 10^−7 M was less than 40% or the value of IC50 was less than 50 nM.).
Turning to `CN(C)c1nc(N[C@H]2CC[C@@H](NC(=S)Nc3c(F)cc(Br)cc3Br)CC2)nc2ccccc12` [compound 360, N-(2,4-dibromo-6-fluorophenyl)-N′-(cis-4-{[4-(dimethylamino)quinazolin-2-yl]amino}cyclohexyl)thiourea], the class is recorded as 1 (Class 1: The value of percent of control at 10^−7 M was less than 40% or the value of IC50 was less than 50 nM.).
`Cc1cc(Cl)cc(Cl)c1NC(=S)N[C@H]1CC[C@@H](Nc2nc(N(C)C)c3ccccc3n2)CC1` [compound 361, N-(2,4-dichloro-6-methylphenyl)-N′-(cis-4-{[4-(dimethylamino)quinazolin-2-yl]amino}cyclohexyl)thiourea]: the class was 1 (Class 1: The value of percent of control at 10^−7 M was less than 40% or the value of IC50 was less than 50 nM.).
The figure for `Cc1ccc(C)c(NC(=S)N[C@H]2CC[C@@H](Nc3nc(N(C)C)c4ccccc4n3)CC2)c1` [compound 362, N-(cis-4-{[4-(dimethylamino)quinazolin-2-yl]amino}cyclohexyl)-N′-(2,5-dimethylphenyl)thiourea] is 2 (Class 2: The value of percent of control at 10^−7 M was from 40% to 60% or the value of IC50 was from 50 nM to 200 nM.).
For the molecule `CC(C)c1ccc(NC(=S)N[C@H]2CC[C@@H](Nc3nc(N(C)C)c4ccccc4n3)CC2)c(Br)c1` [compound 363, N-(2-bromo-4-isopropylphenyl)-N′-(cis-4-{[4-(dimethylamino)quinazolin-2-yl]amino}cyclohexyl)thiourea], the class is recorded as 2 (Class 2: The value of percent of control at 10^−7 M was from 40% to 60% or the value of IC50 was from 50 nM to 200 nM.).
`CN(C)c1nc(N[C@H]2CC[C@@H](NC(=S)Nc3cc(F)ccc3Br)CC2)nc2ccccc12` [compound 364]: the class is on record as 2 (Class 2: The value of percent of control at 10^−7 M was from 40% to 60% or the value of IC50 was from 50 nM to 200 nM.).
`CCOc1ccccc1NC(=S)N[C@H]1CC[C@@H](Nc2nc(N(C)C)c3ccccc3n2)CC1` [compound 365, N-(cis-4-{[4-(dimethylamino)quinazolin-2-yl]amino}cyclohexyl)-N′-(2-ethoxyphenyl)thiourea]: the class was 1 (Class 1: The value of percent of control at 10^−7 M was less than 40% or the value of IC50 was less than 50 nM.).
Take `Cc1cccc(C(C)C)c1NC(=S)N[C@H]1CC[C@@H](Nc2nc(N(C)C)c3ccccc3n2)CC1` [compound 366, N-(cis-4-{[4-(dimethylamino)quinazolin-2-yl]amino}cyclohexyl)-N′-(2-isopropyl-6-methylphenyl)thiourea]: the class is 1 (Class 1: The value of percent of control at 10^−7 M was less than 40% or the value of IC50 was less than 50 nM.).
In the case of `COc1ccccc1CNC(=S)N[C@H]1CC[C@@H](Nc2nc(N(C)C)c3ccccc3n2)CC1` [compound 367, N-(cis-4-{[4-(dimethylamino)quinazolin-2-yl]amino}cyclohexyl)-N′-(2-methoxybenzyl)thiourea] it was 2 (Class 2: The value of percent of control at 10^−7 M was from 40% to 60% or the value of IC50 was from 50 nM to 200 nM.); in that of `CN(C)c1nc(N[C@H]2CC[C@@H](NC(=S)Nc3ccc4c(c3)OCCO4)CC2)nc2ccccc12` [compound 368, N-(2,3-dihydro-1,4-benzodioxin-6-yl)-N′-(cis-4-{[4-(dimethylamino)quinazolin-2-yl]amino}cyclohexyl)thiourea], 1 (Class 1: The value of percent of control at 10^−7 M was less than 40% or the value of IC50 was less than 50 nM.).
As for `Cc1ccc(NC(=S)N[C@H]2CC[C@@H](Nc3nc(N(C)C)c4ccccc4n3)CC2)cc1C` [compound 369], the class is recorded as 3 (Class 3: The value of percent of control at 10^−7 M was more than 60% or the value of IC50 was more than 200 nM.).
For `CN(C)c1nc(N[C@H]2CC[C@@H](NC(=S)Nc3ccc4c(c3)OCO4)CC2)nc2ccccc12` [compound 370, N-1,3-benzodioxol-5-yl-N′-(cis-4-{[4-(dimethylamino)quinazolin-2-yl]amino}cyclohexyl)thiourea], the class is recorded as 1 (Class 1: The value of percent of control at 10^−7 M was less than 40% or the value of IC50 was less than 50 nM.).
With `Cc1c(Cl)cccc1NC(=S)N[C@H]1CC[C@@H](Nc2nc(N(C)C)c3ccccc3n2)CC1` [compound 371], the class was 1 (Class 1: The value of percent of control at 10^−7 M was less than 40% or the value of IC50 was less than 50 nM.).
`CN(C)c1nc(N[C@H]2CC[C@@H](NC(=S)Nc3ccc(Br)cc3OC(F)(F)F)CC2)nc2ccccc12` [compound 372, N-[4-bromo-2-(trifluoromethoxy)phenyl]-N′-(cis-4-{[4-(dimethylamino)quinazolin-2-yl]amino}cyclohexyl)thiourea]: the class is 1 (Class 1: The value of percent of control at 10^−7 M was less than 40% or the value of IC50 was less than 50 nM.).
`COc1cc(NC(=S)N[C@H]2CC[C@@H](Nc3nc(N(C)C)c4ccccc4n3)CC2)c(OC)cc1Cl` [compound 373, N-(4-chloro-2,5-dimethoxyphenyl)-N′-(cis-4-{[4-(dimethylamino)quinazolin-2-yl]amino}cyclohexyl)thiourea]: the class is 1 (Class 1: The value of percent of control at 10^−7 M was less than 40% or the value of IC50 was less than 50 nM.).
As for `CN(C)c1nc(N[C@H]2CC[C@@H](NC(=S)NCCCCc3ccccc3)CC2)nc2ccccc12` [compound 374], the class is on record as 2 (Class 2: The value of percent of control at 10^−7 M was from 40% to 60% or the value of IC50 was from 50 nM to 200 nM.).
In the case of `CN(C)c1nc(N[C@H]2CC[C@@H](NC(=S)Nc3ccc(C(C)(C)C)cc3)CC2)nc2ccccc12` [compound 375] it was 3 (Class 3: The value of percent of control at 10^−7 M was more than 60% or the value of IC50 was more than 200 nM.); in that of `CN(C)c1nc(N[C@H]2CC[C@@H](NC(=S)Nc3cc(Cl)ccc3F)CC2)nc2ccccc12` [compound 376], 3 (Class 3: The value of percent of control at 10^−7 M was more than 60% or the value of IC50 was more than 200 nM.).
As to `CN(C)c1nc(N[C@H]2CC[C@@H](NC(=S)NCC3CC3)CC2)nc2ccccc12` [compound 379], the class was 3 (Class 3: The value of percent of control at 10^−7 M was more than 60% or the value of IC50 was more than 200 nM.).
On to `CCOC(=O)c1c(NC(=S)N[C@H]2CC[C@@H](Nc3nc(N(C)C)c4ccccc4n3)CC2)sc2c1CCCC2` [compound 380], for which the class is 3 (Class 3: The value of percent of control at 10^−7 M was more than 60% or the value of IC50 was more than 200 nM.).
The figure for `COC(=O)c1scc(C)c1NC(=S)N[C@H]1CC[C@@H](Nc2nc(N(C)C)c3ccccc3n2)CC1` [compound 381] is 1 (Class 1: The value of percent of control at 10^−7 M was less than 40% or the value of IC50 was less than 50 nM.).
Consider `COC(=O)c1sccc1NC(=S)N[C@H]1CC[C@@H](Nc2nc(N(C)C)c3ccccc3n2)CC1` [compound 382], for which the class was 1 (Class 1: The value of percent of control at 10^−7 M was less than 40% or the value of IC50 was less than 50 nM.).
